Assay results from patent publication US20230080054A1 (ILDONG PHARMACEUTICAL CO., LTD., priority 2021, published 2023).

Columns and labels:
[1] = molecular target: T1, human ANO6 (Homo sapiens, UniProt Q4KMQ2); assay: LACT C2 assay (phosphatidylserine scramblase function assay); assay type: cell-based; conditions: FRT cells expressing human ANO6, 10 μM ionomycin; for inhibition at 0.1 µM: test compound 100 nM, read-out: Inhibition Level 100 nM; for inhibition at 1 µM: test compound 1 μM, read-out: Inhibition Level 1 μM
T1 construct: expressed in transfected cells
T1 sequence (Q4KMQ2 1-931 isoform Q4KMQ2-2): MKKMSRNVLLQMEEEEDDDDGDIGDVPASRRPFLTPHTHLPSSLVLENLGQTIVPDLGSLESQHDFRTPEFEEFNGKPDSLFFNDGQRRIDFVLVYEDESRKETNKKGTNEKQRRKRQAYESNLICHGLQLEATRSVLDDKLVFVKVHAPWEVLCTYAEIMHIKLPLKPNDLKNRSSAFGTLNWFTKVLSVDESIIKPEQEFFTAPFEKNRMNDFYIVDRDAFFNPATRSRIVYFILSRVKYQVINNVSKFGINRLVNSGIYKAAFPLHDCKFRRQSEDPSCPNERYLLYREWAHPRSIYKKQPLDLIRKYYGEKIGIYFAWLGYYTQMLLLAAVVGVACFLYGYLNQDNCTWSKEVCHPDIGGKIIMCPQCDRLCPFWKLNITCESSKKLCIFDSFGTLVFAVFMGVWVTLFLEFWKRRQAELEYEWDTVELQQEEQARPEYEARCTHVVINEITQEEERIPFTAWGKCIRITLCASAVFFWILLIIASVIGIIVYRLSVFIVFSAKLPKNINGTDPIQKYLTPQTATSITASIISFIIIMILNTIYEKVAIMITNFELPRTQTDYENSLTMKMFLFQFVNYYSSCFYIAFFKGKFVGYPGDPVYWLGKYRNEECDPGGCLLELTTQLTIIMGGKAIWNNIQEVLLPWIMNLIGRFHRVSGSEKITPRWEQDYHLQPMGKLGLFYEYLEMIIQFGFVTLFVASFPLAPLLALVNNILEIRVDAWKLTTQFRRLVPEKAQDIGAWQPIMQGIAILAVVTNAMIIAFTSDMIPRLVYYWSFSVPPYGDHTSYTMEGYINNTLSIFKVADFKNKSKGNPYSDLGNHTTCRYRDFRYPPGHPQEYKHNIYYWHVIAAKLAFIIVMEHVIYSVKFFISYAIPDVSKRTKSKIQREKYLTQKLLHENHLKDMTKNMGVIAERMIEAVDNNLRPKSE
Procedure, shortened: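 Inhibition was normalised between ionomycin-only (0%) and untreated (100%) wells, with triplicates averaged. Readout was background-corrected Lact-C2-GFP (500 nM) fluorescence from imaged cells. The cells were FRT cells stably expressing human ANO6, given compound at 1% DMSO for 10 min before a 10 min 10 μM ionomycin challenge.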

[2] = test system: platelet-rich plasma (PRP); assay: Recalcification time of rat platelet-rich plasma; conditions: 30 μM, vs 2% DMSO control
Description: Example 5: Recalcification Time
1. Materials and Instruments
Isoflurane (Hana Pharm, cat. #9008), Isotonic Sodium Chloride Injection (Daihan Pharm, cat. #331), Citrate-dextrose solution (Sigma-Aldrich, cat. #C3821), Calcium chloride solution (Sigma-Aldrich, cat. #21115), 22G Syringe 10 mL (Koreavaccine), Dimethyl sulfoxide (Sigma-Aldrich, cat. #D5879), Apixaban (AK scientific, cat. #X1060), 96 Well Cell Culture Plates (SPL Life Sciences, cat. #30096), Synergy H4 Hybrid Microplate Reader (BioTek), Combi R515 Multi-purpose Centrifuge (Hanil Scientific), BS-06 Shaking & Heating Baths (JEIO TECH), and PST-60HL-4 Plate Shaker-Thermostat (Bio-San)
Seven-week-old male SD Rat (ORIENT BIO.) were maintained under controlled conditions of temperature (22±2° C.) and 12-h light/12-h dark cycle. Rats were housed in the pathogen-free facility of the Laboratory Animal Research Center in Ildong Pharmaceutical Co. Ltd. All procedures on animals were conducted in accordance with the relevant national regulatory guidelines and individual experiments approved by the Ildong Pharmaceutical Co. Ltd., Institutional Animal Care and Use Committee (IACUC) (approval No.: A2106-3, 2108-4).
The ability of test compounds to interfere with plasma coagulation, in the presence of platelets, was analyzing by measuring the recalcification time of rat plasma. The blood of animals was collected into 15 mL tubes containing Citrate-dextrose solution (9:1 v/v) before performing the assays. For recalcification time, platelet-rich plasma (PRP) samples were obtained by centrifugation at 360×g for 10 minutes. And the PRP were preincubated for 5 minutes (37° C.). In a 96 well microplate, test compounds (2 μL) were treated in 98 μL of platelet rich plasma. After mixing with a pipette, it was incubated at 37° C. for 15 minutes. The reaction was started by addition of 200 μL of pre-warmed CaCl2) (16 mM). Immediately, put the microplate in a microplate reader and the signals were measured by the following steps.
(1) 405 nm wavelength absorbance signals were recorded in every 10 seconds at 37° C.
(2) Basal absorbance signals were recorded for 0 second.
The signal variance of each of the test compounds was obtained by the following step.
(1) Background signals (t=O) were subtracted from recording values, and the resulting values were converted to change values. The values at 0 second were set to be zero.
The retardation time of test compound were calculated by the following formula:
Retardation time (sec)=[log EC50 (test sample)−log EC50 (DMSO control)]
As described above, a DMSO control group is a group to which 2% DMSO was treated.
The assay result is shown in Table 5, where compounds (30 μM) having less than 20 seconds of retardation time are marked by ‘C’; the compounds (30 μM) having retardation time of 20 seconds or more to less than 50 seconds are marked by ‘B’; and the compounds (30 μM) having retardation time of 50 seconds or more are marked by ‘A’.

[3] = molecular target: T1, human ANO6; assay: YFP quenching assay (ANO6 ion channel activity); assay type: cell-based; conditions: 10 μM ionomycin; for inhibition at 1 µM: test compound 1 μM, read-out: Inhibition Level 1 μM; for inhibition at 30 µM: test compound 30 μM, read-out: Inhibition Level 30 μM
Procedure, shortened: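 FRT cells stably expressing human ANO6 and YFP-H148Q/I152L/F46L, preincubated 10 min at 40° C with compounds (1% DMSO) in PBS. Quench read every 0.4 s after injecting 140 mM SCN- with 10 μM ionomycin; % inhibition from the 3.6–7.6 s fluorescence difference, normalised to no-ionomycin (100%) and ionomycin-only (0%) wells, duplicate or triplicate.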

SMILES | inhibition at 0.1 µM [1] [%] | inhibition at 1 µM [1] [%] | inhibition at 1 µM [3] [%] | inhibition at 30 µM [3] [%] | Inhibition Level (retardation time, recalcification time) [2]
O=C(Nc1cccc(F)c1)c1cccc(Nc2ccc(-c3ccccc3)cn2)c1 [Compound 128, N-(3-fluorophenyl)-3-((5-phenylpyridin-2-yl)amino)benzamide] | ≥ 60 | ≥ 60 | – | – | A (the compounds (30 μM) having retardation time of 50 seconds or more)
O=C(Nc1cccc([N+](=O)[O-])c1)c1cccc(Nc2ccc(-c3cccc(F)c3)cn2)c1 [Compound 141, 3-((5-(3-fluorophenyl)pyridin-2-yl)amino)-N-(3-nitrophenyl)benzamide] | ≥ 60 | ≥ 60 | – | – | A (the compounds (30 μM) having retardation time of 50 seconds or more)
O=C(NCCC12CC3CC(CC(C3)C1)C2)c1cccc(Nc2ccc(-c3cccc(F)c3)cn2)c1 [Compound 142, N-(2-(adamantan-1-yl)ethyl)-3-((5-(3-fluorophenyl)pyridin-2-yl)amino)benzamide] | ≥ 60 | ≥ 60 | – | – | A (the compounds (30 μM) having retardation time of 50 seconds or more)
O=C(Nc1cccc(F)c1)c1cccc(Nc2ccc(-c3ccccn3)cc2)c1 [Compound 154, N-(3-fluorophenyl)-3-((4-(pyridin-2-yl)phenyl)amino)benzamide] | ≥ 60 | ≥ 60 | – | – | A (the compounds (30 μM) having retardation time of 50 seconds or more)
O=C(Nc1cccc(F)c1)c1cccc(Nc2ccc(-c3cccnc3)cc2)c1 [Compound 160, N-(3-fluorophenyl)-3-((4-(pyridin-3-yl)phenyl)amino)benzamide] | ≥ 60 | ≥ 60 | – | – | B (the compounds (30 μM) having retardation time of 20 seconds or more to less than 50 seconds)
O=C(N[C@@H]1C[C@H]1c1ccccc1)c1cccc(Nc2ccc(-c3cccnc3)cc2)c1 [Compound 161, N-((1R,2S)-2-phenylcyclopropyl)-3-((4-(pyridin-3-yl)phenyl)amino)benzamide] | ≥ 60 | ≥ 60 | – | – | A (the compounds (30 μM) having retardation time of 50 seconds or more)
O=C(Nc1cccc(F)c1)c1cccc(Nc2ccc(-c3cncnc3)cc2)c1 [Compound 164, N-(3-fluorophenyl)-3-((4-(pyrimidin-5-yl)phenyl)amino)benzamide] | 30 to 60 | – | – | – | C (compounds (30 μM) having less than 20 seconds of retardation time)
O=C(Nc1cccc(F)c1)c1cccc(Nc2ncc(-c3ccoc3)cn2)c1 [Compound 176, N-(3-fluorophenyl)-3-((5-(furan-3-yl)pyrimidin-2-yl)amino)benzamide] | – | – | – | – | C (compounds (30 μM) having less than 20 seconds of retardation time)

Second part, led by results:

inhibition at 0.1 µM [1] [%] | inhibition at 1 µM [1] [%] | inhibition at 1 µM [3] [%] | inhibition at 30 µM [3] [%] | SMILES | Inhibition Level (retardation time, recalcification time) [2]
< 30 | < 30 | ≥ 60 | ≥ 60 | CCOCCCNC(=O)c1cccc(Nc2ccc(-c3ccccc3)nn2)c1 [Compound A67] | –
< 30 | < 30 | ≥ 60 | ≥ 60 | CCCNC(=O)c1cccc(Nc2ccc(-c3ccccc3)nn2)c1 [Compound A68] | –
30 to 60 | ≥ 60 | ≥ 60 | ≥ 60 | CC(C)CCNC(=O)c1cccc(Nc2ccc(-c3ccccc3)nn2)c1 [Compound A70] | –
– | 30 to 60 | ≥ 60 | ≥ 60 | CCCCCNC(=O)c1cccc(Nc2ccc(-c3ccccc3)nn2)c1 [Compound A72] | –
< 30 | 30 to 60 | ≥ 60 | ≥ 60 | O=C(NC1CCN(Cc2ccccc2)CC1)c1cccc(Nc2ccc(-c3ccccc3)nn2)c1 [Compound A73] | –
< 30 | 30 to 60 | ≥ 60 | ≥ 60 | O=C(NCCc1ccccc1)c1cccc(Nc2ccc(-c3ccccc3)nn2)c1 [Compound A74] | –
< 30 | 30 to 60 | 30 to 60 | ≥ 60 | O=C(NCc1ccccc1)c1cccc(Nc2ccc(-c3ccccc3)nn2)c1 [Compound A75] | –
< 30 | 30 to 60 | ≥ 60 | ≥ 60 | COc1cccc(CNC(=O)c2cccc(Nc3ccc(-c4ccccc4)nn3)c2)c1 [Compound A76] | –
< 30 | < 30 | ≥ 60 | ≥ 60 | COc1ccc(CNC(=O)c2cccc(Nc3ccc(-c4ccccc4)nn3)c2)cc1 [Compound A77] | –
< 30 | < 30 | ≥ 60 | ≥ 60 | CCC(C)NC(=O)c1cccc(Nc2ccc(-c3ccccc3)nn2)c1 (centres unmarked) [Compound A78] | –
< 30 | ≥ 60 | ≥ 60 | – | CCOc1ccc(NC(=O)c2cccc(Nc3ccc(-c4ccccc4)nn3)c2)cc1 [Compound A80] | –
< 30 | 30 to 60 | ≥ 60 | – | O=C(Nc1ccc(N2CCOCC2)cc1)c1cccc(Nc2ncc(-c3cccc(F)c3)cn2)c1 [Compound A84] | –
< 30 | ≥ 60 | ≥ 60 | – | O=C(Nc1ccc2c(c1)OCO2)c1cccc(Nc2ncc(-c3cccc(F)c3)cn2)c1 [Compound A85] | –
– | 30 to 60 | ≥ 60 | – | Cc1ccc(CNC(=O)c2cccc(Nc3ccc(-c4cccc(F)c4)nn3)c2)o1 [Compound A87] | –
30 to 60 | ≥ 60 | ≥ 60 | – | O=C(Nc1ccccc1)c1cccc(Nc2ccc(-c3ccccc3)nn2)c1 [Compound A89] | –
